Measurements as given in paper PMC7855930, “Nontoxic Cobalt(III) Schiff Base Complexes with Broad‐Spectrum Antifungal Activity” (Chemistry (Weinheim an Der Bergstrasse, Germany), 2020).

Assays:
[1] = system: panel of eight Candida and Cryptococcus strains; assay: Antifungal MIC, summary over the extended panel; format: cell-based; settings: whole yeast panel, tested alone
Excerpt: Yeast strains: Candida albicans (ATCC 90028, NCCLS 11), Cryptococcus neoformans (ATCC 208821, H99 type strain), Candida tropicalis (ATCC 750, type strain), Candida glabrata (ATCC 90030, NCCLS 84) and Cryptococcus deuterogattii (ATCC 32609, type strain) were obtained from the American Type Culture Collection (ATCC). Cryptococcus deuterogattii (CBS 7750), Candida auris (CBS 10913) and Candida auris (CBS 12373) were obtained from the CBS‐KNAW culture collection. The strains were maintained on glycerol/YPD (yeast extract‐peptone dextrose) broth (20:80 v/v) at −80 °C.
Antifungal minimum inhibitory concentration (MIC) assay: The cobalt complexes and antifungal control compounds were serially diluted in 50 μL of Yeast Nitrogen Broth (YNB; BD, Cat No. 233520 supplemented with 2 % glucose and 10 mM ammonium sulfate) two‐fold across the wells of non‐binding surface (NBS) 96‐well plates (Corning; Cat. No. 3641). […]
Yeast strains were cultured from glycerol onto YPD (Becton Dickinson 242720) agar at 30 °C for 72 h. For each strain, a minimum of five single colonies were taken from the agar plate and dissolved in sterile water and adjusted to form a yeast suspension of 1×10^6 to 5×10^6 CFU mL^−1 (as determined by OD530). […]
Growth inhibition of all strains was determined visually where the MIC was recorded as the lowest compound concentration with no visible growth. […]

CO-ADD bacterial panel = assay: CO-ADD bacterial panel, overall antibacterial activity; format: cell-based; settings: CO‐ADD screening, Table S2
Experimental: CO-ADD High Throughput Screening
Bacterial broth microdilution minimum inhibitory concentration (MIC) assay Bacterial strains were cultured in Cation-adjusted Mueller Hinton broth (CAMHB; Bacto Laboratories 212322) at 37 °C overnight. A sample of each culture was then diluted 40-fold in fresh CAMHB and incubated at 37 °C for 1.5-3 h. The resultant mid-log phase cultures were diluted with CAMHB (CFU/mL measured by OD600), then added to each well of the compound-containing plates (384-well non-binding surface (NBS) plates; Corning CLS3640), giving a cell density of 5 × 10^5 CFU/mL and a total volume of 50 µL. Plates were covered and incubated at 37 °C for 18 h without shaking. Inhibition of bacterial growth was determined measuring absorbance at 600 nm (OD600), using media only as negative control and bacteria without inhibitors as positive control. MIC values were determined as the lowest concentration at which the growth was inhibited at ≥ 80%. Colistin sulfate (Sigma C4461) and vancomycin HCl (Sigma 861987) were used as positive inhibitor controls on each plate for Gram-negative and Gram-positive bacteria, respectively.
Figure S1. 1H NMR (400 MHz) of [Co(ATS)(DMAP)2]NO3 (3) in DMSO-d6.
(1 picture or pasted object on this page, not shown here)

## O=[N+]([O-])[O-].O=[N+]([O-])[O-].[Co+2] [Co, Co(NO3)2, reference compound]
[1]
  MIC, no detectable antifungal effect up to: > 100 µM

## O=[N+]([O-])[O-].[NH3+][Co-3]123([NH3+])[O]c4c(F)cccc4C=[N+]1c1ccccc1[N+]2=Cc1cccc(F)c1[O]3 [Compound 7, [Co(3F‐salophen)(NH3)2]NO3]
CO-ADD bacterial panel
  Antibacterial activity: neither antibacterial nor antifungal activity
